Experimental findings from US20130045952A1, “ABA Receptor Agonists for Increased Plant Stress Resistance” (Van Andel Research Institute, priority 2011, published 2013) are described below.

For one assay, the target named is T1, His6-PYL2 / biotin-PP2C (Arabidopsis thaliana, UniProt O80992).
T1 construct: PYL2 (residues 14-188), and HAB1 (residues 172-511) were prepared as recombinant proteins in E. coli; made in house; host or cells: E. coli
T1 sequence (O80992 14-188): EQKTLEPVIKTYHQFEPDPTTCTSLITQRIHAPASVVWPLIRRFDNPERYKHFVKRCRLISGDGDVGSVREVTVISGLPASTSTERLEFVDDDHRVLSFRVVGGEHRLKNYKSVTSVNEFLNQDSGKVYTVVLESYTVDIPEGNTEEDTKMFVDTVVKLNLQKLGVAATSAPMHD
Kind of assay: AlphaScreen luminescence proximity assay, PYL2-PP2C interaction. Particulars: for Stimulation of the interaction between PYL2 and PP2C (binding signal): 100 nM His6-PYL2, 100 nM biotin-PP2C, 100 μM agonist, normalized against a pyrabactin control. It is filed as biochemical. The protocol:
(§1) Mutant proteins were expressed as H6GST-fusion proteins and purified by glutathione sepharose chromatography. Protein-protein interactions were determined by luminescence proximity AlphaScreen assay. Biotinylated PP2C proteins for the luminescence proximity assay were generated by in vivo biotinylation of avitag-PP2C fusion proteins. PP2C phosphatase activity was measured by phosphate release from a SnRK2.6 phosphoprotein.
(§2) Interactions between PYR/PYL and PP2Cs were assessed by luminescence-proximity AlphaScreen technology (Perkin Elmer). Briefly, biotinylated PP2Cs were attached to streptavidin-coated donor beads, and H6-tagged PYR/PYL receptors were attached to nickel-chelated acceptor beads. The donor and acceptor beads were brought into proximity by the interactions between PYR/PYLs and PP2Cs, which were measured with and without ligands. When excited by a laser beam of 680 nm, the donor beam emits singlet oxygen that activates thioxene derivatives in the acceptor beads, which releases photons of 520-620 nm as the binding signal. The experiments were conducted with 100 nM of PP2Cs and PYR/PYL proteins in the presence of 5 ug/ml donor and acceptor beads in a buffer of 50 mM MOPS, pH7.4, 50 mM NaF, 50 mM CHAPS, and 0.1 mg/ml bovine serum albumin. The results were based on an average of three experiments with standard errors typically less than 10% of the measurements.
Values were determined in different experiments and normalized against a pyrabactin control. Blank spaces mean no experimental data is available. Key (photon counts (binding signal units) in Alphascreen luminescence proximity assay): “+++ is >75,000; ++ is 25,000−75,000; + is <25,000.
A general note: Alpha assays give light when donor and acceptor beads are brought close together.

For assay [1], the target named is T2, PYL6 / PP2Cs (HAB1, ABI1, ABI2) (Arabidopsis thaliana, UniProt Q8S8E3).
T2 construct: made in house; host or cells: not expressly stated for PYL6
T2 sequence (Q8S8E3 1-215): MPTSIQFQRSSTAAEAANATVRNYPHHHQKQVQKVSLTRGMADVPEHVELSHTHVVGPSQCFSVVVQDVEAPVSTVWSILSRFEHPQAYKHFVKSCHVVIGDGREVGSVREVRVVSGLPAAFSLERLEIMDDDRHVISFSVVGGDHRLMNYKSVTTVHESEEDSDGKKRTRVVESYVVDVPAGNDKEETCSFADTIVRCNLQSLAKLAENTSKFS
The assay is described as follows: In vitro PYL6-PP2C interaction. The format is biochemical. Particulars: purified proteins in vitro. The protocol:
(§3) To determine the biochemical basis of these observations, we used purified proteins of PYR1 and PYL1 to PYL6 to measure their interactions with three PP2Cs, HAB1, ABI1, and ABI2, in vitro. […] In phosphatase assays, pyrabactin promoted PYR1, PYL1, PYL3, PYL5, and PYL6, but not PYL2 and PYL4, to inhibit all three PP2Cs.
as §1
as §2, with “The experiments were conducted with 100 nM of PP2Cs and PYR/PYL proteins in the presence of 5 ug/ml donor and acceptor beads in a buffer of 50 mM MOPS, pH7.4, 50 mM NaF, 50 mM CHAPS, and 0.1 mg/ml bovine serum albumin. The results were based on an average of three experiments with standard errors typically less than 10% of the measurements.” left out

The test system of assay [2] is PYL4 / PP2Cs (HAB1, ABI1, ABI2). The assay is described as follows: In vitro PYL4-PP2C interaction. It is filed as biochemical. Particulars: purified proteins in vitro. The protocol: as §3, §1
as §2, with “The experiments were conducted with 100 nM of PP2Cs and PYR/PYL proteins in the presence of 5 ug/ml donor and acceptor beads in a buffer of 50 mM MOPS, pH7.4, 50 mM NaF, 50 mM CHAPS, and 0.1 mg/ml bovine serum albumin. The results were based on an average of three experiments with standard errors typically less than 10% of the measurements.” left out

For the next assay, the target named is T3, PYL1 I137V (Arabidopsis thaliana, UniProt Q8VZS8, I137V).
T3 construct: PYL1 (residues 36-211), PYL2 (residues 14-188), and HAB1 (residues 172-511) were prepared as recombinant proteins in E. coli; made in house; host or cells: E. coli (stated for PYL1 in general)
Kind of assay: PP2C interaction of mutant PYL1 I137V receptors. It is filed as biochemical. Particulars: mutation of PYL1 I137 to valine; also in PYL1 A190V or V193I context. As for the experimental part: One key question is why pyrabactin adopts different conformations between PYL1 and PYL2. The ligand binding pockets of PYL2 and PYL1 only differ in three residues (PYL2/PYL1: V114/1137, V166/A190, and V170/1194). […] In contrast, the V114/1137 change in PYL1 collides with the naphthalene ring of pyrabactin in the PYL2 conformation (C—C distance of 2.2 Å) and forces pyrabactin to flip by 180°. […] Due to the very weak pyrabactin agonist activity in wildtype PYL1, this change is most clearly seen in the context of two mutant PYL1 receptors, in which residues A190 and V193 from helix 3 were exchanged against larger side chains that stabilize the binding of pyrabactin.
as §1
Site-directed mutagenesis was carried out using the QuickChange method (Stratagene). Mutations and all plasmid constructs were confirmed by sequencing.

The subject of assay [3] is RD29B promoter-LUC reporter. The assay is described as follows: Protoplast transient assay, reconstituted ABA signaling pathway, RD29B-LUC reporter. Particulars: Arabidopsis protoplasts. The format is cell-based, Arabidopsis thaliana. The protocol: The ABA signal transduction pathway was reconstituted in protoplasts by transient transfection of PYR/PYL receptor, ABI1, SnRK2.6, and ABF2 expression plasmids. Activation of an ABA-inducible RD29B promoter-LUC reporter was determined by luciferase assays normalized for β-glucuronidase activity from a UQ10-GUS reporter.
An ABA-inducible luciferase reporter was constructed by replacing the CBF3 promoter in the CBF3-LUC construct with the promoter region of RD29B, a highly ABA-inducible gene^2. CBF3-LUC, UQ10-GUS and ABI1 protoplast expression plasmid vectors were kindly provided by Jen Sheen (Massachusetts General Hospital, Boston, Mass. 02114).
Protoplasts were isolated from Arabidopsis thaliana ecotype Columbia-0 plants, which were grown on Jiffy7 soil (Jiffy Products Ltd., Canada) in an environment-controlled chamber at 22° C. with a photosynthetically active radiation of 75 μmol m^−2 s^−1 and a day/night cycle of 13 hours light/11 dark. Transient activity assays were performed in Arabidopsis mesophyll protoplasts from Columbia-0 wild-type plants as described by the Sheen laboratory^33. Transfected protoplasts were incubated for 5 hours in light in the presence of 0 or 5 μM (+) ABA and the indicated concentrations of pyrabactin, and then used for measuring LUC and GUS activity. […]

T3 sequence (Q8VZS8 36-211 I137V): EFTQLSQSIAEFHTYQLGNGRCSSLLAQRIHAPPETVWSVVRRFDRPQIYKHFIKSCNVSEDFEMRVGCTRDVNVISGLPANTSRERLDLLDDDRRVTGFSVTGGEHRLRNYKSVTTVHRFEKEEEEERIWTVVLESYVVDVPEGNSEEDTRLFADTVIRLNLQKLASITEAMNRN

As to `O=C1Nc2ccc(S(=O)(=O)NCc3ccccn3)c3cccc1c23` [Compound 1], on His6-PYL2 / biotin-PP2C, the “Stimulation of the interaction between PYL2 and PP2C (binding signal)” value (“Stimulation” for short) is given as “+ (+ is <25,000)”.
Turning to `CCOC(=O)CNS(=O)(=O)c1ccc2c3c(cccc13)C(=O)N2CC` [Compound 2], on His6-PYL2 / biotin-PP2C, the “Stimulation” value is on record as “+ (+ is <25,000)”.
Consider `CCN1C(=O)c2cccc3c(S(=O)(=O)NC[C@@H]4CCCO4)ccc1c23` [Compound 11], for which the “Stimulation” value at His6-PYL2 / biotin-PP2C was “+ (+ is <25,000)”.
On to `O=S(=O)(NCc1ccccn1)c1ccc(Br)c2ccccc12` [Pyrabactin, pyrabactin], for which the “Promotion of PYL6 interaction with the three PP2Cs” value in assay [1] is reported as “promoted interaction”. The “Effect on ABA-dependent PYL2 interaction with all three PP2Cs” value at His6-PYL2 / biotin-PP2C (in the presence of ABA, concentration-dependent) is on record as “inhibited”. Besides, on His6-PYL2 / biotin-PP2C (purified proteins in vitro, HAB1, ABI1, ABI2), the “Promotion of PYL2 interaction with the three PP2Cs” value is “did not promote”. For the same compound, in assay [2], the “Promotion of PYL4 interaction with the three PP2Cs” value is reported as “promoted interaction”. Further, the “Response of mutant PYL1 I137V receptor” value on PYL1 I137V is “pyrabactin-inhibited receptor”. Also, the “PYL2 and ABA-dependent induction of the ABA-inducible reporter” value in assay [3] (receptor PYL2, with ABA) was “inhibited”. Further, in assay [3] (receptor PYR1, concentration-dependent), the “PYR1-dependent induction of the ABA-inducible reporter RD29B-LUG” value is reported as “promoted”.
